Test results reported in publication PMC10102027, “Helquat dyes targeting G-quadruplexes as a new class of anti-HIV-1 inhibitors” (Scientific Reports, 2023).

How the values were obtained:
HIV-1 (NL4-3 strain) = experiment: CPE-based antiviral assay in HIV-1-infected MT-4 cells (XTT); assay type: cell-based; conditions: Human immunodeficiency virus 1, NL43, MT4, 120 h, cytopathic effect-based assay, MT-4 cells infected by HIV-1 (NL4-3 strain), 5 days post-infection
Description: (§1) Based on a facile [2 + 2 + 2]‐cycloisomerization strategy, a robust three‐step synthetic entry into a novel family of helical extended diquats (helquats) was developed. After a straightforward Knoevenagel condensation of the respective helquat parent with different aldehydes (Fig. 2A), more than 500 helquat-based compounds were synthesized and screened for anti-HIV-1 activity in an assay based on the inhibition of the virus-induced cytopathic effect in MT-4 cells, evaluated after 5 days post-infection by an XTT assay. In parallel with the screening, the XTT assay was also used to determine the cytotoxicity of all compounds (Fig. 2B; for more information on the synthesis and characterization of the compounds, see the Supplementary Information). […]
(§2) XTT screening. MT-4 cells were seeded in 80 µl of the RPMI without Phenol Red in the amount of 3x10^4 cells per well of a 96-well plate. 10 µl of tested compounds (500 µM at 5% DMSO) or controls (5% DMSO at PBS, AZT 1mM, SQV 100 µM) were added to the cells; after one-hour incubation at 37 °C, HIV-1 (NL4-3 strain) was added with MOI = 0.05 and the infected cells were cultivated for five days.
The viability of the cells was measured by the XTT cell viability and proliferation assay. Briefly, 50 µl of the XTT solution with the addition of PMS (both VWR) was added to the cultivation media and incubated in a humidified incubator maintained at 37 °C with 5% CO2 for four hours, after which absorbance at 560 nm was measured on a VICTOR plate reader (PerkinElmer). […]
(§3) For compounds selected as hits in the initial screening, the effective concentration that inhibits 50% of the viral activity (EC50) and the cytotoxic concentration that reduces the MT -4 cell viability by 50% (CC50) were determined. Viral activity was evaluated after five days as an HIV-1-induced cytopathic effect quantified by the XTT assay. Selected hits were tested at two-fold serial dilutions from 50 µM concentration, and the drug concentrations required to reduce the viral cytopathic effect by 50% (EC 50) as well as the drug concentrations that reduced MT-4 cell viability by 50% (CC50) were calculated by nonlinear regression using GraphPad Prism v.8.0.0 (GraphPad Software).

in vitro = assay type: cell-based; conditions: human
Description: as §1, §2
The viability of the cells was measured by the XTT cell viability and proliferation assay. Briefly, 50 µl of the XTT solution with the addition of PMS (both VWR) was added to the cultivation media and incubated in a humidified incubator maintained at 37 °C with 5% CO2 for four hours, after which absorbance at 560 nm was measured on a VICTOR plate reader (PerkinElmer).
The cytotoxicity of the tested compounds was evaluated separately without virus addition and analysed by the same assay.
as §3

[1] = tested on: ss G4 LTR wild-type oligonucleotide; experiment: Light-up experiment, ss G4 LTR; assay type: binding, HIV-1; conditions: 4 μM compound
Procedure: There are many small molecular probes for specific G4 visualization in cells. […] To distinguish specifically the potential light-up triggered by helquat binding to G-quadruplexes in the HIV-1 LTR, we employed two control oligonucleotides, both unable to form G-quadruplexes (Fig. 6A): an LTR oligonucleotide sequence with two point mutations precluding G4 formation and an LTR oligonucleotide with a scrambled sequence (both adopted from[41]).
The selected compounds were incubated in the presence of the G4 LTR wild-type (wt) oligonucleotide, the G4 LTR M4 + M5 oligonucleotide containing mutations that disabled G-quadruplex formation (described previously[41]), and the G4 LTR scrambled-sequence oligonucleotide, or the buffer-only control. The compounds were tested at a compound:oligonucleotide ratio of 2:1 (4 μM compounds and 2 μM oligonucleotide) in PBS in a 384-well plate. Emission spectra were measured after excitation at 280 nm in a Tecan Infinite M1000 plate reader. The fluorescent image of the plate was taken with the Bio-Rad ChemiDoc imaging system after UV-light excitation. The Light-up titration experiment was performed similarly as described above with the exception that 4 μM compound 12 was incubated with serial dilutions (1:1) of oligonucleotides (ss G4 LTR wild type, G4 c-myc and G4 c-kit1) spanning final concentrations 2 to 0.002 μM. The excitation at 280 nm and emission at 600 nm were used to monitor the Light-up.

ds G4 LTR = experiment: Light-up experiment, ds G4 LTR; assay type: binding, HIV-1; conditions: 4 μM compound, excitation 280 nm
Procedure: (§4) The intensity of fluorescence measured after the incubation with both oligonucleotides incompetent of G-quadruplex formation was almost identical, with the maximum intensity 2.5 times lower than that of the G-quadruplex-forming oligonucleotide (wt). […] To examine the specificity of ligand 12, we have repeated the light-up experiment with single-stranded G4 LTR in parallel with double-stranded G4 LTR and additional G-quadruplexes (c-myc, c-kit1 and h-telo). […] To further evaluate the specificity of ligand 12, we performed the light-up titration experiment incubating compound 12 with serial dilutions (1:1) of oligonucleotides (ss G4 LTR wild type, G4 c-myc and c-kit1) spanning final concentrations 2 to 0.002 μM (Supplement Fig. S3B). […] This can indicate a slight preference of ligand 12 for ss G4 LTR than for c-myc at lower oligonucleotide concentrations.
(§5) The selected compounds were incubated in the presence of the G4 LTR wild-type (wt) oligonucleotide, the G4 LTR M4 + M5 oligonucleotide containing mutations that disabled G-quadruplex formation (described previously[41]), and the G4 LTR scrambled-sequence oligonucleotide, or the buffer-only control. The compounds were tested at a compound:oligonucleotide ratio of 2:1 (4 μM compounds and 2 μM oligonucleotide) in PBS in a 384-well plate. Emission spectra were measured after excitation at 280 nm in a Tecan Infinite M1000 plate reader. […]

c-myc G-quadruplex = experiment: Light-up experiment, c-myc; assay type: binding; conditions: 4 μM compound, excitation 280 nm
Procedure: as §4, §5

c-kit1 G-quadruplex = experiment: Light-up experiment, c-kit1; assay type: binding; conditions: 4 μM compound, excitation 280 nm
Procedure: as §4, §5

h-telo G-quadruplex = experiment: Light-up experiment, h-telo; assay type: binding; conditions: 4 μM compound, excitation 280 nm
Procedure: as §4, §5

[2] = 2 μM oligonucleotide, excitation 280 nm

Row | SMILES | EC50 (HIV-1 (NL4-3 strain)) | CC50 at 5 days (in vitro) | fluorescence light-up [1, 2] | maximum fluorescence intensity with non-G4-forming oligonucleotides (M4 + M5, scrambled), times lower than with wt [1, 2] | fluorescence in light-up titration, ss G4 LTR versus c-myc and c-kit1 ([1]; oligonucleotide concentration of 0.5 μM and below, emission 600 nm) | fluorescence light-up (ds G4 LTR) | fluorescence light-up (c-myc G-quadruplex) | fluorescence light-up (c-kit1 G-quadruplex) | fluorescence light-up (h-telo G-quadruplex)
1 | Cn1cc(/C=C/c2cc(/C=C/c3cn(C)c4ccccc34)[n+]3c(c2)-c2c(ccc4c2-c2cccc[n+]2CCC4)CCC3)c2ccccc21 [Compound 12] | 2680 nM | > 50000 nM | strong and specific fluorescence | 2.5 times | stronger fluorescence after incubation with ss G4 LTR | very weak fluorescence | strong fluorescence | strong fluorescence | low fluorescence
2 | C(=C\c1cc(/C=C/c2ccc3c(c2)CCO3)[n+]2c(c1)-c1c(ccc3c1-c1cccc[n+]1CCC3)CCC2)/c1ccc2c(c1)CCO2 [Compound 14] | 2700 nM | > 50000 nM | – | – | – | – | – | – | –
3 | COc1ccc2ccccc2c1/C=C/c1cc[n+]2c(c1)-c1c(c(C)c(C)c3c1-c1cc(/C=C/c4c(OC)ccc5ccccc45)cc[n+]1CC3)CC2 [Compound 15] | 2740 nM | > 50000 nM | – | – | – | – | – | – | –
